The subject of data set [1] is MDA-MB-231 cells. The experiment in a line: Determination of drug stability by colony formation assay. Conditions: for colony survival: drugs in the medium for 24 hours; for reduction of colony formation: one-hour exposure; for survival: two-hour exposure; for reduction of survival: added straight to cells, 24 hours; for colony-forming ability of receiving cells: supernatant transferred after prior one-hour incubation. It counts as cell-based, human. The procedure:
FIGS. 26A-26C depicts determination of drug stability, where MDA-MB-231 cells were analyzed in colony formation assays. In FIG. 26A, cells were treated with 15 μM TMZ-POH or 30 μM TMZ for 30 min or 1, 2, 4, and 24 hours. Thereafter, drug-containing medium was removed, fresh medium (without drug) was added, and cells remained undisturbed until colony staining 12 days later. The arrows indicate which cells received which supernatant. After 24 hours of incubation, all drug-containing medium was removed, fresh medium (without drug) was added, and cells remained undisturbed until colony staining 12 days later. […] Left panel (untreated): control cells without drug treatment. Middle panel (0-24 h): Cells received 15 μM TMZ-POH or 30 μM TMZ for 24 hours. Right panel (1-25 h): TMZ-POH and TMZ were incubated in neutral buffer at 37° C. for 1 hour before addition to cells to a final concentration of 15 μM TMZ-POH and 30 μM TMZ for 24 hours.
TMZ is a prodrug, and it is well known that its activation takes place spontaneously in aqueous solution at 37° C. (i.e., no cellular functions are required for this conversion). As well, the half-lives of both prodrug and active product are fairly short, where all cytotoxic triggers are set within the first few hours of treatment. […] First, we exposed cells to variably short periods of drug treatment, washed off the drug, and then continued to keep cells in medium without drug to determine survival and colony-forming ability. For most of these experiments, we used 15 μM TMZ-POH and 30 μM TMZ, because these concentrations are approximately equipotent in the >90% cytotoxicity range (when measured by CFAs and a drug exposure time of 24 hours).
Thus, TMZ acted more quickly than TMZ-POH; it required only 4 hours to exert maximum toxicity, whereas TMZ-POH had not yet reached its maximum impact at this time point.
We next modified this experiment as follows. After cells had been exposed to drug treatment for the specific times shown in FIG. 26A, we removed the medium containing the drug from the cells, and transferred this supernatant to fresh cells, which were then exposed for 24 hours. […] In contrast, when supernatant was transferred after prior one-hour incubation, colony-forming ability of receiving cells was 48% in cells receiving TMZ-containing supernatant, and 22% in TMZ-POH-containing supernatant.
To exclude the involvement of cellular enzymes in the turnover of TMZ-POH, we incubated TMZ-POH (and TMZ) in phosphate-buffered saline at 37° C. for one hour (in the absence of cells). After this pre-incubation, TMZ-POH and TMZ were added to cells for 24 hours, and survival was determined by CFA. As a control, both drugs were also added to cells without prior incubation in aqueous solution. A representative CFA is shown in FIG. 26C, where the middle panel confirms that both drugs were used at approximately equipotent concentrations; i.e., when added straight to cells, they reduced survival by ˜95%. However, pre-incubation in aqueous solution for only one hour preempted the cytotoxic potency of TMZ by about 50%, but that of TMZ-POH much less (80% remaining; see right panel).

The test system of data set [2] is U87 human glioma cells. The experiment in a line: MTT cytotoxicity assay, U87 glioma cells. Conditions: U87; result in words. The source says: In vitro efficacy of the present composition can be determined using methods well known in the art. For example, the cytoxicity of the present monoterpene (or sesquiterpene) and/or the therapeutic agents may be studied by MTT [3-(4,5-dimethylthiazol-2-yl)-2,5-diphenyl tetrazolium bromide] cytotoxicity assay. MTT assay is based on the principle of uptake of MTT, a tetrazolium salt, by metabolically active cells where it is metabolized into a blue colored formazon product, which can be read spectrometrically. J. of Immunological Methods 65: 55 63, 1983. The cytoxicity of the present monoterpene (or sesquiterpene) derivative and/or the therapeutic agents may be studied by colony formation assay. Functional assays for inhibition of VEGF secretion and IL-8 secretion may be performed via ELISA. Cell cycle block by the present monoterpene (or sesquiterpene) derivative and/or the therapeutic agents may be studied by standard propidium iodide (PI) staining and flow cytometry. Invasion inhibition may be studied by Boyden chambers. In this assay a layer of reconstituted basement membrane, Matrigel, is coated onto chemotaxis filters and acts as a barrier to the migration of cells in the Boyden chambers. Only cells with invasive capacity can cross the Matrigel barrier. Other assays include, but are not limited to cell viability assays, apoptosis assays, and morphological assays.
First cytotoxicity assays were carried out after cells were treated with dimethyl-celecoxib (DMC) alone.
Then U87, A172 and U251 cells were treated with dimethyl celecoxib bisPOH carbamate (POH−DMC) (e.g., synthesized by the method in Example 1), and the MTT cytotoxicity assays performed (FIG. 2).
First cytotoxicity assays were carried out after cells were treated with temozolomide (TMZ) alone, the standard alkylating agent used in the treatment of malignant gliomas.
Then TMZ-resistant glioma cell lines U87, A172 and U251 cells were treated with TMZ-POH (e.g., synthesized by the method in Example 3).
To compare the cytotoxicity of Rolipram POH Carbamate (POH-Rolipram) (e.g., synthesized by the method in Example 5) with rolipram, […] inducing differentiation and apoptosis in glioma cells, A172, U87, U251 and LN229 human glioma cells were treated with either POH-Rolipram or rolipram for 48 hours.

Data set [3] relates to MGMT. The experiment in a line: Western blot of MGMT protein levels in MDA-MB-468 cells. It counts as cell-based, human. Conditions: in words. The procedure: In FIG. 21C, MDA-MB-468 cells were treated with the indicated concentrations of TMZ-POH, TMZ, or O6-BG for 17 hours before harvest of cellular lysates. vh.=cells treated with vehicle only.
Total cell lysates were analyzed by Western blot analysis as described in P. Pyrko et al. Downregulation of survivin expression and concomitant induction of apoptosis by celecoxib and its non-cyclooxygenase-2-inhibitory analog, dimethyl-celecoxib (DMC), in tumor cells in vitro and in vivo. Mol Cancer 5 (2006) 19. The primary antibodies were purchased from Cell Signaling Technology (Beverly, Mass.) or Santa Cruz Biotechnology, Inc. (Santa Cruz, Calif.) and used according to the manufacturers' recommendations. All immunoblots were repeated at least once to confirm the results.
The major cytotoxic DNA lesion set by TMZ is methylation of O6-guanine, and it is well known that removal of this methyl group by MGMT leads to rapid degradation of the DNA repair protein.

Entries after “also recorded” stand apart in the source; their conditions may differ. Where only a bound is given, the exact number is not on record here.

For `C=C(C)[C@@H]1CC=C(COC(=O)NC(=O)c2ncn3c(=O)n(C)nnc23)CC1` [TMZ-POH], in data set [1] (15 μM TMZ-POH or 30 μM TMZ), the “time required to exert maximum toxicity” value is over 4 h, the colony survival result was “about 3%”, the “reduction of colony formation” value worked out at 20% and the survival is 51%. The reduction of survival in data set [1] (15 μM TMZ-POH or 30 μM TMZ) was about 95%. Moreover, the “stability / retention of cytotoxic potency” value in data set [1] (in words) was “retained its cytotoxic potency substantially longer than TMZ; also recorded: more stable than TMZ”. For the same compound, the “cytotoxic potency remaining after pre-incubation” value in data set [1] (phosphate-buffered saline at 37° C. for one hour, absence of cells) was 80%. In data set [1] (receiving cells exposed 24 hours, in words), the “cytotoxic activity of supernatant transferred after prior 24-hours of incubation” value is “no cytotoxic activity remained”. For the same compound, in data set [1], the “colony-forming ability of receiving cells” value was 22%. In addition, the “cytotoxicity (MTT assay)” value in data set [2] is on record as “substantially higher kill rates”. Also, the MGMT protein levels result in data set [3] (MDA-MB-468, 50 μM, 17 hours) was “significant decrease”. In addition, the MGMT protein levels entry in data set [3] (MDA-MB-468, 17 hours) is “affects MGMT levels more potently than TMZ”.
Turning to `Cn1nnc2c(C(N)=O)ncn2c1=O` [TMZ, temozolomide, reference compound], in data set [1] (15 μM TMZ-POH or 30 μM TMZ), the colony survival is reported as about 8%, the “reduction of colony formation” value is listed as over 50%, the survival turned out to be 23% and the reduction of survival is given as about 95%. In data set [1], the “colony-forming ability of receiving cells” value was 48%. Also, the “cytotoxicity (MTT assay)” value in data set [2] is “minimal cytotoxicity”. Besides, the MGMT protein levels entry in data set [3] (MDA-MB-468, 50 μM, 17 hours) is recorded as “no effect”.

The values above are taken from patent US9913838B2, “Methods of treating cancer using compositions comprising perillyl alcohol derivative” (NEONC TECHNOLOGIES INC., priority 2010, dated 2018).
